The series can be described thus: Solubility in cyclopentanone. In kind it is physicochemical. The conditions noted are these: solvent cyclopentanone. The protocol:
For Compounds (1) to (8) thus synthesized, solubility in cyclopentanone was measured.

`CCCCOC(=O)CCC(=O)OCCc1ccc(/N=N/c2cc3sc(/N=N/c4ccc(N(CC)CC)cc4)nc3s2)cc1` [Compound (1)] had a Solubility in cyclopentanone of 1.6% by mass. In the case of `CCN(CC)c1ccc(/N=N/c2nc3sc(/N=N/c4ccc(CCC(=O)OCCC(C)CCCC(C)C)cc4)cc3s2)cc1` (centres unmarked) [Compound (2)], the Solubility in cyclopentanone was found to be 4.5% by mass. The same measure for `CCCCC(CC)C(=O)OCCc1ccc(/N=N/c2cc3sc(/N=N/c4ccc(N(CC)CC)cc4)nc3s2)cc1` (centres unmarked) [Compound (3)]: 6.0% by mass. The same measure for `CCN(CC)c1ccc(/N=N/c2nc3sc(/N=N/c4ccc(CCOC(=O)CCC(=O)OCCC(C)CCCC(C)C)cc4)cc3s2)cc1` (centres unmarked) [Compound (4)]: 5.4% by mass; for `CCCCCC(=O)OCCCCOC(=O)c1ccc(/N=N/c2cc3sc(/N=N/c4ccc(N(CC)CC)cc4)nc3s2)cc1` [Compound (5)]: 1.2% by mass; for `CCCCCCCCCCCCc1ccc(/N=N/c2cc3sc(/N=N/c4ccc(N(CC)CC)cc4)nc3s2)cc1` [Compound (6), reference compound]: 0.59% by mass.

With `CCCOC(=O)c1ccc(/N=N/c2cc3sc(/N=N/c4ccc(N(CC)CC)cc4)nc3s2)cc1` [Compound (7), reference compound], the Solubility in cyclopentanone was 0.19% by mass. Compound `CCCCCCCCCC(=O)OCCc1ccc(/N=N/c2cc3sc(/N=N/c4ccc(N(CC)CC)cc4)nc3s2)cc1` [Compound (8), reference compound] returned a Solubility in cyclopentanone of 0.50% by mass.

Values taken from patent US20180265707A1, “DICHROIC DYE COMPOUND, DICHROIC DYE COMPOSITION, LIGHT-ABSORBING ANISOTROPIC FILM, POLARIZING ELEMENT, AND IMAGE DISPLAY DEVICE” (FUJIFILM Corporation, priority 2015, published 2018).
